From patent US10858365B2, “Triazolo-pyrimidine compounds and uses thereof” (Dizal (Jiangsu) Pharmaceutical Co., Ltd., priority 2018, dated 2020)

Key:
Type in all cases: cell-based
hA1 = hA1 (Homo sapiens (Human), UniProt P30542); assay: FLIPR inhibition assay in hADORA1/CHO (hA1 expressing) cells; conditions: hADORA1/CHO cells, FLIPR calcium, adenosine stimulation; read-out: cAMP & FLIPR IC50 (nM) hA1
Description: hADORA1/CHO (hA1 expressing) cells (Genscript) were plated at 1×10^4 cells/well into 384-well polystyrene plates one day before starting the experiment. On the day of experiment, the supernatant was discard and replaced with 40 µL of dye (FLIPR calcium 5 Assay Kit) per well and the plates were incubated for 60 mins at 37° C. plus 5% CO2. Then testing compounds were added at different concentrations for FLIPR™ inhibition assay. After a 400 s incubation with compound, […] adenosine was added into the cells, and the signal was captured by FLIPR.

hA2b = hA2b (Homo sapiens (Human), UniProt P29275); assay: cAMP inhibition assay in hA2b/CHO cells; conditions: adenosine stimulation, read-out: cAMP & FLIPR IC50 (nM) hA2b
hA2b, sequence (P29275 whole entry): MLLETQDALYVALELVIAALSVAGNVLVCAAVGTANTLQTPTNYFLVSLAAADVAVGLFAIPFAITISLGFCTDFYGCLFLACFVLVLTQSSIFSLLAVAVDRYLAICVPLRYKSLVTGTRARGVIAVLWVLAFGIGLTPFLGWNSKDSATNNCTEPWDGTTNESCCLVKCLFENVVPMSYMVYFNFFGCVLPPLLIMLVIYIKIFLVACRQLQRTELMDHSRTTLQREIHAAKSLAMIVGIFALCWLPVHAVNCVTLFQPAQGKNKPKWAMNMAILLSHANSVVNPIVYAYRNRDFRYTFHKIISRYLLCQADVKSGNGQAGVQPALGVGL
Description: (§1) hA2a/CHO, hA2b/CHO and mA2a/CHO (Genscript) were plated at 5×10^3 cells/well into 384-well polystyrene plates at the day of experiment. Compounds were pre-incubated with cells for 30 min at 37° C., 5% CO2. Then […] adenosine was added to the cells and incubated for 30 min at 37° C., 5% CO2. Detection reagent (CISBIO) was added and the plates were incubated for 60 min at room temperature. The signal was captured by Envision.

mA2a = mA2a (Mus musculus (Mouse), UniProt Q60613); assay: cAMP inhibition assay in mA2a/CHO cells; conditions: adenosine stimulation, read-out: cAMP & FLIPR IC50 (nM) mA2a
mA2a, sequence (Q60613 whole entry): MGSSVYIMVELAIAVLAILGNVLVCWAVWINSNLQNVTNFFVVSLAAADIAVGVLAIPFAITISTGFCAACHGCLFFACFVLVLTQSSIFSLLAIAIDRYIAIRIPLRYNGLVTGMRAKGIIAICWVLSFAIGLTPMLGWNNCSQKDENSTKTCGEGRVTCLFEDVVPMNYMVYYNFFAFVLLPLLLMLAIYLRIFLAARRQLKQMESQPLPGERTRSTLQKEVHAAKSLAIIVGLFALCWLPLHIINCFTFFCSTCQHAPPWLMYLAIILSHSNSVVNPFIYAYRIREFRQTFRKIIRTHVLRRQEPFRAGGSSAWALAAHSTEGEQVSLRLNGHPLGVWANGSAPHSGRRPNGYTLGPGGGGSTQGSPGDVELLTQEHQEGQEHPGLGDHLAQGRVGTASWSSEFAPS
Description: as §1

hA2a = hA2a (Homo sapiens (Human), UniProt P29274); assay: cAMP inhibition assay in hA2a/CHO cells; conditions: adenosine stimulation, read-out: cAMP & FLIPR IC50 (nM) hA2a
hA2a, sequence (P29274 whole entry): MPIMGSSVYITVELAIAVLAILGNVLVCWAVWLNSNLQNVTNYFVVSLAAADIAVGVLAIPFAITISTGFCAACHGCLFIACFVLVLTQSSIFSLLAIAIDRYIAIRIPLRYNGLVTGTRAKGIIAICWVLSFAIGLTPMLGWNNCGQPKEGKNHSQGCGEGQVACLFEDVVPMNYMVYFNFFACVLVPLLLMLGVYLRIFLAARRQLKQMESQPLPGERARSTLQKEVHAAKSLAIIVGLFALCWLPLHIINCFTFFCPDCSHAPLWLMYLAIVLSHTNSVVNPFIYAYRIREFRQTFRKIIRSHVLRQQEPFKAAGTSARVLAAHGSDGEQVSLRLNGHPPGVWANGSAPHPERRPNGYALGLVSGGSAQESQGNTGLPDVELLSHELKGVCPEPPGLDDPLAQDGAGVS
Description: as §1
FLIPR™ and cAMP inhibition activities of exemplary compounds in different adenosine receptor over-expressing cell lines are shown in Table 4 below.

hA1, sequence (P30542 whole entry): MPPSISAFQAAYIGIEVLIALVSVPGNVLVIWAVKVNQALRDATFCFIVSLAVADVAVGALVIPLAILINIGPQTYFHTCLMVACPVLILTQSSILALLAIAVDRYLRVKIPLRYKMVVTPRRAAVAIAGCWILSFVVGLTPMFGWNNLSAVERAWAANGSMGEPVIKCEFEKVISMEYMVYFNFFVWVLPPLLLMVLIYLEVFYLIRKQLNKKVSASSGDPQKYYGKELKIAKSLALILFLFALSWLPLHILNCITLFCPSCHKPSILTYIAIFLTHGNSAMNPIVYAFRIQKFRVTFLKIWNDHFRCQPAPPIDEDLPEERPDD

SMILES | IC50 (hA1) [nM] | IC50 (hA2b) [nM] | IC50 (mA2a) [nM] | IC50 (hA2a) [nM]
Cn1cc(-c2c(-c3ccc(F)cc3F)nc(N)n3nc(Cc4ncccc4F)nc23)ccc1=O [Example 64, 5-(5-amino-7-(2,4-difluorophenyl)-2-((3-fluoropyridin-2-yl)methyl)-[1,2,4]triazolo[1,5-c]pyrimidin-8-yl)-l-methylpyridin-2(lH)-one] | 97 | 742 | 137 | 68
COc1ccccc1-c1nc(N)n2nc(Cc3ncccc3F)nc2c1-c1ccc(=O)n(C)c1 [Example 98, 5-(5-amino-2-((3-fluoropyridin-2-yl)methyl)-7-(2-methoxyphenyl)-[1,2,4]triazolo[1,5-c]pyrimidin-8-yl)-1-methylpyridin-2(1H)-one] | 333 | 1540 | 224 | 88
CNc1cc(-c2c(-c3ccc(F)cc3)nc(N)n3nc(Cc4ncccc4F)nc23)ccn1 [Example 43, 7-(4-fluorophenyl)-2-((3-fluoropyridin-2-yl)methyl)-8-(2-(methylamino)pyridin-4-yl)-[1,2,4]triazolo[1,5-c]pyrimidin-5-amine] | 24 | 12 | 41 | 19
Cc1cnc2ccc(-c3c(-c4ccc(F)cc4)nc(N)n4nc(C[C@@H]5CCCN5C)nc34)cn12 [Example 122, (S)-7-(4-fluorophenyl)-8-(3-methylimidazo[1,2-a]pyridin-6-yl)-2-((l-methylpyrrolidin-2-yl)methyl)-[1,2,4]triazolo[1,5-c]pyrimidin-5-amine] | 67.7 | 93.5 | 2.6 | 0.3
Cc1nc(Cc2nc3c(-c4ccc5nccn5c4)c(-c4ccc(F)cc4)nc(N)n3n2)cs1 [Example 68, 7-(4-fluorophenyl)-8-[imidazo[1,2-a]pyridin-6-yl]-2-[(2-methyl-1,3-thiazol-4-yl)methyl]-[1,2,4]triazolo[1,5-c]pyrimidin-5-amine] | 29 | 614 | 12 | 3.2
Cc1cnc2ccc(-c3c(N(C)C)nc(N)n4nc(Cc5ncccc5F)nc34)cn12 [Example 100, 2-[(3-fluoropyridin-2-yl)methyl]-N7,N7-dimethyl-8-[3-methylimidazo[1,2-a]pyridin-6-yl]-[1,2,4]triazolo[1,5-c]pyrimidine-5,7-diamine] | 11.8 | 38 | 3.5 | 1.2
Nc1nc(-c2ccc(F)cc2)c(-c2ccc3ncccc3c2)c2nc(Cc3ncccc3F)nn12 [Example 89, 7-(4-fluorophenyl)-2-[(3-fluoropyridin-2-yl)methyl]-8-(quinolin-6-yl)-[1,2,4]triazolo[1,5-c]pyrimidin-5-amine] | 132 | 82 | 1.3 | 0.4
Cn1cc(-c2c(-c3cccc(F)c3)nc(N)n3nc(Cc4ncccc4F)nc23)ccc1=O [Example 40, 5-(5-amino-7-(3-fluorophenyl)-2-((3-fluoropyridin-2-yl)methyl)-[1,2,4]triazolo[1,5-c]pyrimidin-8-yl)-1-methylpyridin-2(1H)-one] | 18 | 72 | 15 | 5.2
Cn1cc(-c2c(-c3ccccn3)nc(N)n3nc(Cc4c(F)cccc4F)nc23)ccc1=O [Example 92, 5-[5-amino-2-[(2,6-difluorophenyl)methyl]-7-(pyridin-2-yl)-[1,2,4]triazolo[1,5-c]pyrimidin-8-yl]-1-methyl-1,2-dihydropyridin-2-one] | 13 | 680 | 11 | 8
Cc1cnc2ccc(-c3c(-c4ncco4)nc(N)n4nc(CC5CCOC5)nc34)cn12 (single isomer, unassigned) [Example 107-1, 8-(3-methylimidazo[1,2-a]pyridin-6-yl)-7-(oxazol-2-yl)-2-((tetrahydrofuran-3-yl)methyl)-[1,2,4]triazolo[1,5-f]pyrimidin-5-amine] | 54.6 | 416 | 32.7 | 0.5
Cn1cc(-c2c(-c3ccc(F)cc3)nc(N)n3nc(Cc4cccc(N)n4)nc23)ccc1=O [Example 35, 5-(5-amino-2-((6-aminopyridin-2-yl)methyl)-7-(4-fluorophenyl)-[1,2,4]triazolo[1,5-c]pyrimidin-8-yl)-1-methylpyridin-2(1H)-one] | 35 | 173 | 23 | 27
Cc1cc(-c2c(-c3ncco3)nc(N)n3nc(Cc4c(F)cccc4F)nc23)cc(C)n1 [Example 33, 2-[(2,6-difluorophenyl)methyl]-8-(2,6-dimethylpyridin-4-yl)-7-(1,3-oxazol-2-yl)-[1,2,4]triazolo[1,5-c]pyrimidin-5-amine] | 6940 | 10000 | 109 | 18
Cn1cc(-c2c(-c3nccs3)nc(N)n3nc(Cc4c(F)cccc4F)nc23)ccc1=O [Example 44, 5-(5-amino-2-(2,6-difluorobenzyl)-7-(thiazol-2-yl)-[1,2,4]triazolo[1,5-c]pyrimidin-8-yl)-l-methyl pyridin-2(lH)-one] | 13 | 97 | 5.9 | 4.3
Cn1cc(-c2c(-c3ccc4c(ccn4C)c3)nc(N)n3nc(Cc4ncccc4F)nc23)ccc1=O [Example 97, 5-(5-amino-2-((3-fluoropyridin-2-yl)methyl)-7-(1-methyl-1H-indol-5-yl)-[1,2,4]triazolo[1,5-c]pyrimidin-8-yl)-1-methylpyridin-2(1H)-one] | 19 | 1720 | 120 | 47
Cc1cc(-c2c(-c3ccc(F)cc3)nc(N)n3nc(Cc4ncccc4F)nc23)cn(C)c1=O [Example 29, 5-(5-amino-7-(4-fluorophenyl)-2-((3-fluoropyridin-2-yl)methyl)-[1,2,4]triazolo[1,5-c]pyrimidin-8-yl)-l,3-dimethylpyridin-2(1H)-one] | 4.3 | 91 | 5.1 | 3.8
Cc1cnc2ccc(-c3c(-c4ncco4)nc(N)n4nc(Cc5ncccc5F)nc34)cn12 [Example 99, 2-((3-fluoropyridin-2-yl)methyl)-8-(3-methylimidazo[l,2-a]pyridin-6-yl)-7-(oxazol-2-yl)-[l,2,4] triazolo[l,5-c]pyrimidin-5-amine] | 3.5 | 21 | 0.8 | 0.5
Cn1cc(-c2c(-c3ccc(F)cc3)nc(N)n3nc(Cc4nccs4)nc23)ccc1=O [Example 42, 5-[5-amino-7-(4-fluorophenyl)-2-[(1,3-thiazol-2-yl)methyl]-[1,2,4]triazolo[1,5-c]pyrimidin-8-yl]-1-methyl-1,2-dihydropyridin-2-one] | 6.6 | 206 | 13 | 7.9
Cc1cc(-c2c(-c3ncco3)nc(N)n3nc(Cc4ncccc4F)nc23)cc(Cl)n1 [Example 82, 8-(2-chloro-6-methylpyridin-4-yI)-2-((3-fluoropyridin-2-yl)methyl)-7-(oxazol-2-yl)-[l,2,4]triazolo [1,5-c]pyrimidin-5-amine] | 2640 | 2910 | 63 | 25
Cn1cc(-c2c(-c3ccc(C#N)cc3)nc(N)n3nc(Cc4ncccc4F)nc23)ccc1=O [Example 57, 4-(5-amino-2-((3-fluoropyridin-2-yl)methyl)-8-(1-methyl-6-oxo-1,6-dihydropyridin-3-yl)-[1,2,4]triazolo[l,5-c]pyrimidin-7-yl)benzonitrile] | 76 | 399 | 219 | 120
Cn1cc(-c2c(-c3ccc(F)cc3)nc(N)n3nc(Cc4ncc(F)cc4F)nc23)ccc1=O [Example 67, 5-(5-amino-2-((3,5-difluoropyridin-2-yl)methyl)-7-(4-fluorophenyl)-[1,2,4]triazolo[1,5-c]pyrimidin-8-yl)-1-methylpyridin-2(1H)-one] | 13 | 3200 | 21 | 22
Cn1cnc2ccc(-c3c(-c4ncco4)nc(N)n4nc(Cc5ncccc5F)nc34)cc21 [Example 90, 2-((3-fluoropyridin-2-yl)methyl)-8-(1-methyl-1H-benzo[d]imidazol-6-yl)-7-(oxazol-2-yl)-[1,2,4] triazolo[1,5-c]pyrimidin-5-amine] | 72 | 48 | 3.5 | 1.8
Cc1coc(-c2nc(N)n3nc(Cc4c(F)cccc4F)nc3c2-c2ccc(=O)n(C)c2)n1 [Example 27, 5-(5-amino-2-(2,6-difluorobenzyl)-7-(4-methyloxazol-2-yl)-[1,2,4]triazolo[1,5-c]pyrimidin-8-yl)-1-methylpyridin-2(1H)-one] | 112 | 10000 | 245 | 139
